Assay results as given in patent US6693126B2, “Dihydroxyphenyl derivatives for hepatoprotection and treatment of liver diseases” (Choongwae Pharm. Co., Ltd., priority 2000, dated 2004).

Key:
[1] = tested on: Fulminant Liver Injuries caused by D-galactosamine/lipopolysaccharide in Mice; experiment: Inhibitory effect against fulminant liver injuries caused by D-galactosamine/lipopolysaccharide in mice (survival); format: in vivo, Mice (ICR, male); conditions: D-galactosamine 800 mg/kg + lipopolysaccharide 10 μg/kg i.p., observed 24 hours
Text: Further, the D-galactosamine/lipopolysaccharide model(see, Chris Galanos et al., Proc. Natl. Acad. Sci. USA, 76, 11, 5939-5943, 1979; Koji Hase et al., Biol. Pharm. Bull., 20, 4, 381-385, 1997; Junichi Nagakawa et al., The Journal of Pharmacology and Experimental Therapeutics, 264, 1, 1992; Nolan J. D., Hepatology, 1, 458-465, 1981; Wendel A., Methods Enzymol., 186, 675-680, 1990) which is also used in the present invention for the identification of hepatoprotective effect is based on the phenomena that liver injuries are caused by immune responses in mouse. It has been reported that such kind of liver injuries are caused not by direct tissue lesions due to the chemicals but by secretion of tumor necrosis factor(TNF)-α, reactive oxygen, etc.(see, Hishinuma I. et al., Hepatology, 12, 1187-1191, 1990, Hase K. et al., Phytother. Res., 10, 387-392, 1996). Here, D-galactosamine supresses protein biosynthesis and as well highly increases the sensitivity of the liver cells for lipopolysaccharide by reducing uridine nucleotide.
The hepatoprotective effect of the compound of the present invention was identified according to a known procedure(see, Koji Hase et al., Biol. Pharm. Bull., 20, 4, 381-385, 1997), and the protocol may be described in brief as follows.
(§1) Mice(ICR, male, 27˜35 g) as the test animal were allowed in a condition of temperature 22±1° C. and relative humidity 60±5%. Feed and water were provided with no restriction while light and darkness were changed at an interval of 12 hours.
The compound of the present invention was suspended in a solvent corn oil, and this suspension was administered in a dose of 10 ml/kg. Each group included 10 test animals, and the test compound was orally administered once per animal. After 1 hour from the administration of the test compound, D-galactosamine and lipopolysaccharide each of which dissolved in physiological saline were intraperitoneally injected at the same time in doses of 800 mg/kg and 10 μg/kg, respectively. As the control compounds, SY-640[N-methyl-N-(3,4-methylenedioxyphenacyl)acetamide; EP0350251], silymarin and DDB were selected.
The statistical significance for the test result of each group was examined based on Student's t-test, and the result was recognized as having a statistical significance when its P value is less than 5%.

[2] = tested on: Liver Injuries caused by Thioacetamide in Mice; experiment: Inhibitory effect against liver injuries caused by thioacetamide in mice; format: in vivo, Mice (ICR, male); conditions: thioacetamide i.p., serum 24 h
Text: The hepatoprotective effect of the compound of formula (1) was also identified by thioacetamide model(see, Masuda Yasusuke and Nakayama Nobue, Biochemical Pharmacology, 31, 17, 2713-2725, 1982; Liu Jie et al., Acta Pharmacologica Sinica, 16, 2, 97-102, 1995; Story D. L. et al., J. Tox. Environ. Health, 11, 483-501, 1983; Gomez-Lechon M. J. et al., Xenobiotica, 18, 6, 725-735, 1988) which is frequently used as an experimental model for liver injuries. This model has been established based on the phenomena that thioacetamide activated by P-450 S-oxidation inordinately increases the influx of calcium ion(Ca^++) into the liver cells, which in turn activates calcium ion-dependent phospholipase, protease and endonuclease, changes the cell frame through the calcium ion, exhausts ATP, and consequently destroys the liver cells. Thioacetamide also damages ureogenesis pathway in liver, and the metabolite of thioacetamide inhibits the transfer of RNA and makes the liver cell membranes unstable. A series of these activities results in the destruction of the liver cells, which in turn causes the increase of ALT and AST values in blood and also causes histologically the centrilobular necrosis.
The degree of liver damage in the experimental animals was determined by measuring ALT and AST values in blood(see, Biol. Pharm. Bull., 20, 4, 381-385, 1997; Toxicology and Applied Pharmacology, 95, 1-11, 1988), and the hepatoprotective activity was calculated based on the following formula(see, Planta Medica, 55, 127-132, 1989). At this time, the hepatoprotective activity can also be calculated based on the same formula by replacing ALT value with AST value. [formula]
The hepatoprotective effect of the compound of the present invention was identified according to a known procedure(see, Landon, E. J. et al., Biochemical Pharmacology, 35, 4, 697-705, 1986), and the protocol may be described in brief as follows.
as §1
The compound of the present invention was suspended in a solvent corn oil, and this suspension was administered in a dose of 10 ml/kg. Each group included 8 test animals, and the test compound was orally administered once per animal. After 1 hour from the administration of the test compound, thioacetamide solution(concentration: 90 mg/ml) in physiological saline was intraperitoneally injected in a dose of 1 ml/kg. As the control compounds, silymarin and DDB were selected.
The test animals were provided with no feed and sufficient water for 24 hours from the administration of thioacetamide. […] This blood was centrifuged to obtain sera. ALT and AST values in the sera were measured using blood chemistry analyzer(Vitalab, Selectra II, Merck). The statistical significance for the test result of each group was examined based on Student's t-test, and the result was recognized as having a statistical significance when its P value is less than 5%.

| Compound | Survival Rate (%) ([1]; dose 5.6 mg/kg oral once) | Inhibitory Effect against Liver Injuries (%) ALT ([2]; dose 16.7 mg/kg p.o. once) | Inhibitory Effect against Liver Injuries(%) AST ([2]; dose 16.7 mg/kg p.o. once) | Inhibitory Effect against Liver Injuries (%) ALT ([2]; dose 50 mg/kg p.o. once) | Inhibitory Effect against Liver Injuries(%) AST ([2]; dose 50 mg/kg p.o. once) | Survival Rate (%) ([1]; dose 50 mg/kg oral once) |
| --- | --- | --- | --- | --- | --- | --- |
| CC(=O)SCC(=O)c1ccc2c(c1)OCO2 [Compound 28, 1-(benzo[3,4-d]1,3-dioxolan-5-yl)-2-acetylthioethan-1-one] | 100% | 76% | 89% | 87% | 94% | – |
| c1csc(-c2ccc3c(c2)OCO3)n1 [Compound 21, 2-(benzo[3,4-d]1,3-dioxolan-5-yl)-1,3-thiazole] | 100% | 54% | 37% | 98% | 98% | – |
| COc1cc(/C=N/OCc2ccccn2)cc2c1OCO2 [Compound 13, 6-(2-((2-pyridyl)methoxy)-2-azavinyl)-4-methoxybenzo [d]1,3-dioxolane] | – | – | – | 91% | – | 90% |
| COC(=O)c1cc(OC)c2c(c1-c1c(C(=O)OC)cc(OC)c3c1OCO3)OCO2 [DDB, reference compound] | – | – | – | 21% | −4% | 80% |
| O/N=C/c1ccc2c(c1)OCO2 [Compound 1] | – | – | – | 99% | – | 90% |
